ChEMBL document CHEMBL2380278, “Synthesis and antibacterial evaluation of a novel series of 10-hydroxyl ketolide derivatives” (2013)
Converted amounts (≈) assume the structure as drawn.

How the values were obtained:
Staphylococcus aureus [1] = experiment: Antibacterial activity against Staphylococcus aureus ATCC 25923 by broth microdilution method; format: functional
Escherichia coli [2] = experiment: Antibacterial activity against Escherichia coli ATCC 35218 by broth microdilution method; format: functional
Staphylococcus aureus [3] = experiment: Antibacterial activity against drug-resistant Staphylococcus aureus by broth microdilution method; format: functional
[4] = system: Staphylococcus epidermidis; experiment: Antibacterial activity against drug-resistant Staphylococcus epidermidis by broth microdilution method; format: functional
Pseudomonas aeruginosa [5] = experiment: Antibacterial activity against Pseudomonas aeruginosa ATCC 27853 by broth microdilution method; format: functional
Klebsiella pneumoniae = experiment: Antibacterial activity against drug-resistant Klebsiella pneumoniae by broth microdilution method; format: functional
Pseudomonas aeruginosa [6] = experiment: Antibacterial activity against drug-resistant Pseudomonas aeruginosa by broth microdilution method; format: functional
Escherichia coli [7] = experiment: Antibacterial activity against drug-resistant Escherichia coli by broth microdilution method; format: functional
Escherichia coli [8] = experiment: Antibacterial activity against Escherichia coli ATCC 25922 by broth microdilution method; format: functional
Salmonella typhi = experiment: Antibacterial activity against drug-resistant Salmonella typhi by broth microdilution method; format: functional, Salmonella enterica subsp. enterica serovar Typhi; settings: Salmonella enterica

SMILES: CC[C@H]1OC(=O)[C@H](C)C(=O)[C@H](C)[C@@H](O[C@@H]2O[C@H](C)C[C@H](N(C)C)[C@H]2O)[C@](C)(OC)C[C@@H](C)C(=O)[C@H](C)[C@H]2N(CCCCn3cnc(-c4cccnc4)c3)C(=O)O[C@]12C [TELITHROMYCIN]
- MIC (Staphylococcus aureus [1]): 16 µg/mL (≈ 19.7 µM)
- MIC (Escherichia coli [2]): 8 µg/mL (≈ 9.85 µM)
- MIC (Staphylococcus aureus [3]): 16 µg/mL (≈ 19.7 µM)
- MIC [4]: 0.125 µg/mL (≈ 0.154 µM)
- MIC (Pseudomonas aeruginosa [5]): 64 µg/mL (≈ 78.8 µM)
- MIC (Klebsiella pneumoniae): 16 µg/mL (≈ 19.7 µM)
- MIC (Pseudomonas aeruginosa [6]): 64 µg/mL (≈ 78.8 µM)
- MIC (Escherichia coli [7]): 32 µg/mL (≈ 39.4 µM)
- MIC (Escherichia coli [8]): 2 µg/mL (≈ 2.46 µM)
- MIC (Salmonella typhi): 16 µg/mL (≈ 19.7 µM)

SMILES: CC[C@H]1OC(=O)[C@H](C)C(=O)[C@H](C)[C@@H](O[C@@H]2O[C@H](C)C[C@H](N(C)C)[C@H]2O)[C@](C)(OC)C[C@@H](C)C(=O)[C@@](C)(O)[C@H]2OC(=O)O[C@]12C
- MIC (Staphylococcus aureus [1]): 128 µg/mL (≈ 203 µM)
- MIC (Escherichia coli [2]): > 128 µg/mL
- MIC (Staphylococcus aureus [3]): > 128 µg/mL
- MIC [4]: 64 µg/mL (≈ 102 µM)
- MIC (Pseudomonas aeruginosa [5]): > 128 µg/mL
- MIC (Klebsiella pneumoniae): > 128 µg/mL
- MIC (Pseudomonas aeruginosa [6]): > 128 µg/mL
- MIC (Escherichia coli [7]): > 128 µg/mL
- MIC (Escherichia coli [8]): > 128 µg/mL
- MIC (Salmonella typhi): > 128 µg/mL

SMILES: CC[C@H]1OC(=O)[C@H](C)C(=O)[C@H](C)[C@@H](O[C@@H]2O[C@H](C)C[C@H](N(C)C)[C@H]2O)[C@](C)(OC)C[C@@H](C)C(=O)[C@]2(C)O[C@H]2[C@]1(C)O
- MIC (Staphylococcus aureus [1]): 128 µg/mL (≈ 219 µM)
- MIC (Escherichia coli [2]): > 128 µg/mL
- MIC (Staphylococcus aureus [3]): > 128 µg/mL
- MIC [4]: 128 µg/mL (≈ 219 µM)
- MIC (Pseudomonas aeruginosa [5]): > 128 µg/mL
- MIC (Klebsiella pneumoniae): > 128 µg/mL
- MIC (Pseudomonas aeruginosa [6]): > 128 µg/mL
- MIC (Escherichia coli [7]): > 128 µg/mL
- MIC (Escherichia coli [8]): > 128 µg/mL
- MIC (Salmonella typhi): > 128 µg/mL

SMILES: CC[C@H]1OC(=O)[C@H](C)C(=O)[C@H](C)[C@@H](O[C@@H]2O[C@H](C)C[C@H](N(C)C)[C@H]2O)[C@](C)(OC)C[C@@H](C)C(=O)[C@@H](C)[C@H]2OC(=O)O[C@@]21C
- MIC (Staphylococcus aureus [1]): 64 µg/mL (≈ 104 µM)
- MIC (Escherichia coli [2]): 128 µg/mL (≈ 209 µM)
- MIC (Staphylococcus aureus [3]): 128 µg/mL (≈ 209 µM)
- MIC [4]: 0.0625 µg/mL (≈ 0.102 µM)
- MIC (Pseudomonas aeruginosa [5]): > 128 µg/mL
- MIC (Klebsiella pneumoniae): 128 µg/mL (≈ 209 µM)
- MIC (Pseudomonas aeruginosa [6]): > 128 µg/mL
- MIC (Escherichia coli [7]): 64 µg/mL (≈ 104 µM)
- MIC (Escherichia coli [8]): 128 µg/mL (≈ 209 µM)
- MIC (Salmonella typhi): 128 µg/mL (≈ 209 µM)

SMILES: CC[C@H]1OC(=O)[C@H](C)[C@@H](O[C@H]2C[C@@](C)(OC)[C@@H](O)[C@H](C)O2)[C@H](C)[C@@H](O[C@@H]2O[C@H](C)C[C@H](N(C)C)[C@H]2O)[C@](C)(OC)C[C@@H](C)C(=O)[C@H](C)[C@@H](O)[C@]1(C)O [CLARITHROMYCIN]
- MIC (Staphylococcus aureus [1]): 32 µg/mL (≈ 42.8 µM)
- MIC (Escherichia coli [2]): 32 µg/mL (≈ 42.8 µM)
- MIC (Staphylococcus aureus [3]): > 128 µg/mL
- MIC [4]: 64 µg/mL (≈ 85.6 µM)
- MIC (Pseudomonas aeruginosa [5]): 64 µg/mL (≈ 85.6 µM)
- MIC (Klebsiella pneumoniae): 64 µg/mL (≈ 85.6 µM)
- MIC (Pseudomonas aeruginosa [6]): 128 µg/mL (≈ 171 µM)
- MIC (Escherichia coli [7]): 64 µg/mL (≈ 85.6 µM)
- MIC (Escherichia coli [8]): 64 µg/mL (≈ 85.6 µM)
- MIC (Salmonella typhi): 64 µg/mL (≈ 85.6 µM)

SMILES: CC[C@H]1OC(=O)[C@H](C)C(=O)[C@H](C)[C@@H](O[C@@H]2O[C@H](C)C[C@H](N(C)C)[C@H]2O)[C@](C)(OC)C[C@@H](C)C(=O)[C@@](C)(O)[C@H]2OS(=O)O[C@]12C (stereo not given in full)
- MIC (Staphylococcus aureus [1]): 64 µg/mL (≈ 98.5 µM)
- MIC (Escherichia coli [2]): > 128 µg/mL
- MIC (Staphylococcus aureus [3]): > 128 µg/mL
- MIC [4]: 8 µg/mL (≈ 12.3 µM)
- MIC (Pseudomonas aeruginosa [5]): > 128 µg/mL
- MIC (Klebsiella pneumoniae): > 128 µg/mL
- MIC (Pseudomonas aeruginosa [6]): > 128 µg/mL
- MIC (Escherichia coli [7]): > 128 µg/mL
- MIC (Escherichia coli [8]): > 128 µg/mL
- MIC (Salmonella typhi): > 128 µg/mL

SMILES: CC[C@H]1OC(=O)[C@H](C)C(=O)[C@H](C)[C@@H](O[C@@H]2O[C@H](C)C[C@H](N(C)C)[C@H]2O)[C@](C)(OC)C[C@@H](C)C(=O)[C@@](C)(O)[C@H](O)[C@]1(C)O
- MIC (Staphylococcus aureus [1]): 64 µg/mL (≈ 106 µM)
- MIC (Escherichia coli [2]): > 128 µg/mL
- MIC (Staphylococcus aureus [3]): > 128 µg/mL
- MIC [4]: > 128 µg/mL
- MIC (Pseudomonas aeruginosa [5]): > 128 µg/mL
- MIC (Klebsiella pneumoniae): > 128 µg/mL
- MIC (Pseudomonas aeruginosa [6]): > 128 µg/mL
- MIC (Escherichia coli [7]): > 128 µg/mL
- MIC (Escherichia coli [8]): > 128 µg/mL
- MIC (Salmonella typhi): > 128 µg/mL
